Test results taken from US11246929B2, “Combination of a protein kinase inhibitor and an additional chemotherapeutic agent” (Merck Patent GmbH, priority 2016, dated 2022).
Like-named read-outs stand apart in the source and are kept apart here.

Assays:
[1] = tested on: human NCI-H526 SCLC xenograft; assay: NCI-H526 SCLC xenograft, combination with etoposide/cisplatin; assay type: in vivo
Procedure: The mice were acclimatized to the housing conditions for 1 week. […] Bedding consisted of aspen chips (E. Becker, Castrop-Rauxel). Room temperature was 24+/−2° C. and relative humidity was 50+/−10% at 15 air changes per hour. Drinking water (provided ad libitum) was supplemented with 1 mg/mL Chlorine and was adjusted to a pH of 6.5 with HCl. Sterile high protein maintenance diet for immunodeficient mice (Ssniff, Soest, product No V1244-72, γ-sterilized) was also provided ad libitum. The light cycle was set at 12 hrs light and 12 hrs darkness. Details of the study protocol are as follows:
Then the cell suspension (100 μL/animal) was subcutaneously inoculated in the right flank of immunodeficient CD1 mice.
Tumor measurements and calculations: When the tumors reached a volume of 96-214 mm^3 the animals were randomized into 7 treatment groups with 10 animals each. Tumor length (L) and width (W) were measured twice weekly by calipers. The tumor volume was calculated using the formula L×W2/2. Data were collected in Study Advantage™ (data collection system).
Treatment: dosing and scheduling per above.
T/C-value: The ability of a treatment to inhibit tumor growth was assessed at the end of each study by calculating the % T/C value according to following formulas: % T/C delta>0 calculation (mean): [(end tumor volume treatment−start tumor volume treatment)/(end tumor volume control−start tumor volume control)]×100] % T/C delta≤0 (regression) calculation (mean): [(end tumor volume treatment−start tumor volume treatment)/start tumor volume treatment]×100
Toxicity: The bodyweight change in % denotes the difference between the weight at start of treatment and the end of treatment. Changes of bodyweight during the treatment course are particularly important as it is considered a measure for presence or absence of treatment-related toxicity. A dosage producing a 20% body weight change (mean of group) or ≥10% drug deaths was considered an excessively toxic dosage. Animal body weights included the tumor weights.
Animals were treated with three 1-week cycles of chemotherapy consisting of Cisplatin (3 mg/kg once weekly) and Etoposide (4 mg/kg for three consecutive days per week).

DNA-PK (p-Ser2056) [2] = molecular target: T1, DNA-PK (p-Ser2056) (Homo sapiens, UniProt P78527); assay: IR-induced DNA-PK phosphorylation in tumor tissue, ELISA, HCT116 xenograft; assay type: in vivo; details: IR 50 Gy
T1 construct: from tissue; host or cells: human tumor xenografts (FaDu, HCT116, WM164) grown in mice
Text: (§1) Following the induction of DSB by radiation therapy or other DNA damaging agents, the catalytic subunit of DNA-PK (DNA-PKc) is autophosphorylated at several serine and threonine residues. Ser2056 is one of the most prominent and best studied autophosphorylation sites. Because Ser2056 phosphorylation (p-Ser2056) correlated well with DNA-PK activation state it was chosen as the pharmacodynamics (PD) biomarker. Two different assay formats were established to measure p-Ser2056 in tumor tissue: ELISA and MSD format. In order to detect sequence reliable signal, IR was used at 50 Gy for the ELISA assay and 10 Gy for the more sensitive MSD assay.

DNA-PK (p-Ser2056) [3] = molecular target: T1, DNA-PK (p-Ser2056); assay: IR-induced DNA-PK phosphorylation in tumor tissue, MSD assay, WM164 xenograft; assay type: in vivo
Text: as §1

DNA-PK = DNA-PK (Homo sapiens, UniProt P78527); assay: crystallographic and enzyme kinetics studies; assay type: biochemical
MO59K (DNA-PK wild type) = assay: AlamarBlue viability assay; assay type: cell-based, human
Procedure: Details of the assay protocol and material utilized are set forth below.
After 24 h incubation at 37° C.
At the end of the compound incubation period 20 μl AlamarBlue reagent was added per well and the 96-well plates were incubated further up to seven hours. Absorption was determined at 540 nm by using Tecan Reader Connect and Magelan 7.
0% effect=cells treated with DMSO; −100% effect=no cells

[4] = tested on: 81 cancer cell lines representing 17 tumor tissue types; assay: Single agent activity, panel of 81 cancer cell lines plus PBMC; assay type: cell-based; details: for GI50: PBMC
[5] = tested on: resting, non-proliferating PBMC; assay: as above; assay type: cell-based
A204 = assay: SRB growth inhibition, 93 cell lines panel; assay type: cell-based; details: Homo sapiens; A204, muscle; read-out: GI50 of etoposide (±Compound 1)
Procedure: (§2) 90 μl of cells, after a 48-hour pre-growth period, were treated by mixing with 10 μl of the compound-containing media (resulting in a final DMSO concentration of 0.1%).
(§3) This is the drug concentration causing a 50% reduction compared to the net protein increase in control cells during the drug incubation period. In other words, G150 is IC50 corrected for time zero. […] TGI was calculated from Ti=Tz. […] It was calculated as 100×[(Ti−Tz)/Tz]=−50.

ASPC1 = assay: SRB growth inhibition, 93 cell lines panel; assay type: cell-based; details: Homo sapiens; ASPC1, pancreas; read-out: GI50 of etoposide (±Compound 1)
Procedure: as §2, §3

CALU6 = assay: SRB growth inhibition, 93 cell lines panel; assay type: cell-based; details: Homo sapiens, Calu-6; CALU6, lung; read-out: GI50 of etoposide (±Compound 1)
Procedure: as §2, §3

CASKI = assay: SRB growth inhibition, 93 cell lines panel; assay type: cell-based; details: Homo sapiens, Ca-Ski, cervix, read-out: GI50 of etoposide (±Compound 1)
Procedure: as §2, §3

HS729 = assay: SRB growth inhibition, 93 cell lines panel; assay type: cell-based; details: HS729, muscle; read-out: GI50 of etoposide (±Compound 1)
Procedure: as §2, §3

IMR90 = assay: SRB growth inhibition, 93 cell lines panel; assay type: cell-based; details: Homo sapiens, IMR-90; IMR90, lung; read-out: GI50 of etoposide (±Compound 1)
Procedure: as §2, §3

MCF7 = assay: SRB growth inhibition, 93 cell lines panel; assay type: cell-based; details: Homo sapiens; MCF7, breast; read-out: GI50 of etoposide (±Compound 1)
Procedure: as §2, §3

NCIH358M = assay: SRB growth inhibition, 93 cell lines panel; assay type: cell-based; details: NCI-H358M, lung, read-out: GI50 of etoposide (±Compound 1)
Procedure: as §2, §3

PBMC = assay: SRB growth inhibition, 93 cell lines panel; assay type: cell-based; details: hematological, read-out: GI50 of etoposide (±Compound 1)
Procedure: as §2, §3

lung cancer cell lines = assay: cells; details: read-out: Median etoposide concentration needed to reach GI50
Procedure: (§4) Single agent as well as combination treatment growth inhibition effects were measured by ONCOLEAD.
(§5) Relative area above the dose-response curve (relAOC or AOC) were obtained as the area above the dose-response curve in the dose range between 1E-3M and 1E-10M.

colon cancer cell lines = assay: cells; details: read-out: Median etoposide concentration needed to reach GI50
Procedure: as §4, §5

CACO2 = assay: cells; details: Homo sapiens, Caco-2, read-out: GI50 of etoposide (±Compound 1)
Procedure: Cell growth and treatment were performed in 96-well microtitre plates CELLSTAR® (Greiner Bio-One, Germany). Cells harvested from exponential phase cultures by trypsinization or by splitting (in the case of cells growing in suspension) were plated in 90 μl of media at optimal seeding densities. The optimal seeding density for each cell line was determined to ensure exponential growth for the duration of the experiment. All cells growing without anticancer agents were sub-confluent by the end of the treatment, as determined by visual inspection.
90 μl of cells, after a 48-hour pre-growth period, were treated by mixing with 10 μl of the compound-containing media (resulting in a final DMSO concentration of 0.1%). The cells were allowed to grow at 37° C. for 72 (or 120) hours.
Cells were fixed to the surface by addition of 10% TCA (for adherent growing cells) or 50% TCA (for semi-adherent growing cell or cells growing in suspension). After an hour of incubation at 4° C. plates were washed twice with 200 μl of deionized water and dried. Cells were then stained with 100 μl of 0.04% w/v SRB. […]
Using these measurements, cellular responses can be calculated for incomplete inhibition of cell growth (GI), complete inhibition of cell growth (TGI) and net loss of cells (LC) due to compound activity. […] TGI was calculated from Ti=Tz. […] It was calculated as 100×[(Ti−Tz)/Tz]=−50.

In the case of COc1ccc([C@@H](O)c2cc(-c3ncnc4cc(N5CCOCC5)ccc34)c(F)cc2Cl)nn1 [Compound 1, (S)-[2-chloro-4-fluoro-5-(7-morpholin-4-yl-quinazolin-4-yl)-phenyl]-(6-methoxy-pyridazin-3-yl)-methanol], the efficacy by schedule ([1]; Compound 1 daily throughout the study vs separated from SoC by 7 h or days) is reported as “better efficacy”, the body weight change ([1]; SoC combined with Compound 1) is reported as “additional body weight loss” and the mean tumor volume ([1]; day 21, Compound 1 50 mg/kg daily + etoposide 4 mg/kg + cisplatin 3 mg/kg, n=10) is reported as 50 mm^3. For the same molecule, the “decrease of mean tumor volume compared to starting volume” value ([1]; day 21, Compound 1 50 mg/kg daily + etoposide + cisplatin) was “about 67%”, the “animals showing complete response” value ([1]; day 28, combination arm) was 4/10 and the animals with regression ([1]; day 28, combination arm) was 1/10. For the same molecule, the “animals with stable disease” value ([1]; day 28, combination arm) was 3/10, the animals progression free ([1]; day 28, combination arm (Compound 1 + SoC)) was 9/10 and the antitumor activity ([1]; in combination with Etoposide and Cisplatin) was “significantly enhanced antitumor activity”. The “inhibition of IR-induced DNA-PK phosphorylation (Ser2056)” value (DNA-PK (p-Ser2056) [2]) was “Dose-dependent inhibition”, the “inhibition of IR-induced DNA-PK phosphorylation (Ser2056)” value (DNA-PK (p-Ser2056) [3]; WM164, MSD assay, IR 10 Gy) was “Dose-dependent inhibition” and the “DNA-PK autophosphorylation in tumor tissue” value (DNA-PK (p-Ser2056) [3]; WM164, 25 mg/kg 10 minutes prior to 10 Gy IR) was “inhibition of DNA-PK autophosphorylation”. For the same molecule, the “inhibition of DNA-PK, mode” value (DNA-PK) was “potent and selective ATP-competitive inhibitor”, the “inhibition of viability, combination with etoposide” value (MO59K (DNA-PK wild type)) was “enhanced inhibition of viability” and the “potentiation of etoposide, Compound 1 in comparison to VX-984” value (MO59K (DNA-PK wild type); compound incubation for 72 h) was “compares favorably”. For the same molecule, the activity range [4] was “more than 20 fold”, the GI50 ([4]; in a set of cell lines, read-out: activity (GI50), lower end of range) was 500 nM and the GI50 ([4]; read-out: activity (GI50), upper end of range) was > 10000 nM. The “activity in resting PBMC” value [5] was “No activity”.
In the case of COc1cc([C@@H]2c3cc4c(cc3[C@@H](O[C@@H]3O[C@@H]5CO[C@@H](C)O[C@H]5[C@H](O)[C@H]3O)[C@H]3COC(=O)[C@H]23)OCO4)cc(OC)c1O [Etoposide], the activity range [4] is reported as “more than 1000 fold”, the “activity in resting PBMC” value [5] is reported as “no activity” and the GI50 (A204) is reported as 286 nM. The GI50 (ASPC1) was > 10000 nM, the GI50 (CALU6) was 3650 nM and the GI50 (CASKI) was 1450 nM. The GI50 (HS729) was 730 nM, the GI50 (IMR90) was 704 nM and the GI50 (MCF7) was 1290 nM. For the same molecule, the GI50 (NCIH358M) was 3330 nM, the GI50 (PBMC) was > 10000 nM and the GI50 (lung cancer cell lines) was 320 nM. It also gave a GI50 (colon cancer cell lines) of 700 nM and a GI50 (CACO2) of 3650 nM.
